The source of these data is patent US11498923B2 (Merck Sharp & Dohme Corp., priority 2017, dated 2022).

Where only a bound is given, the exact number is not on record here.

The assay addresses T1, human A2a receptor (Homo sapiens, UniProt P29274).
T1 construct: purchased Perkin-Elmer RBHA2AM400UA; host or cells: HEK293 cells, used as a membrane preparation
Briefly: A2a receptor competition binding assay (Scintillation Proximity). As to conditions: membranes from HEK293 cells expressing human A2a receptor; 0.5 nM tritiated ligand; Cheng-Prusoff; read-out: A2a Ki. A digest of the protocol: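 Ki values were obtained with the Cheng-Prusoff equation from competition curves against 0.5 nM tritiated antagonist, scintillation proximity counting after 1 h room-temperature incubation. Receptor came from HEK293 membranes pretreated with adenosine deaminase; compound final range 3000–0.15 nM, buffer Ca/Mg-free PBS with 10 mM MgCl2.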
A general note: Scintillation proximity formats need no separation of bound from free tracer.

T1 sequence (P29274 whole entry): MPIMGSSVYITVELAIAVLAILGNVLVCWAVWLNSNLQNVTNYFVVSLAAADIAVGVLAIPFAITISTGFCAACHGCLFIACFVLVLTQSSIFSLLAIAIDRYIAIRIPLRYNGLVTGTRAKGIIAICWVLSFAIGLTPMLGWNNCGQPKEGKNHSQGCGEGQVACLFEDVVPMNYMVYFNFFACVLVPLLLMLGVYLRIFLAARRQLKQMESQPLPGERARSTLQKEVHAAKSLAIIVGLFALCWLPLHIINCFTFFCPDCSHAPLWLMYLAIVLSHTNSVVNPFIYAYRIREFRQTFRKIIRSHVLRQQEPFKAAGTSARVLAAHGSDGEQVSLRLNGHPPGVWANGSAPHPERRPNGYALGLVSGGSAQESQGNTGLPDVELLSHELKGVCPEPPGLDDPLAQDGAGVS

Usually Ki stands for the equilibrium dissociation constant of an inhibitor or competing ligand from its target. As to `Cc1cc(Cc2cn3c(N)nc4c(-c5c(C)noc5C)cccc4c3n2)ccn1` [Ex-155, 7-(3,5-dimethylisoxazol-4-yl)-2-((2-methylpyridin-4-yl)methyl)imidazo[1,2-c]quinazolin-5-amine], the Ki came to 130 nM. On to `Nc1nc2c(-c3cnoc3)cccc2c2nc(Cc3ccccc3)cn12` [Ex-156, 2-benzyl-7-(isoxazol-4-yl)imidazo[1,2-c]quinazolin-5-amine], for which the Ki was found to be 28 nM. For `COc1cccc2c1nc(N)n1cc(C(=O)NCc3cccc4cccnc34)nc21` [Ex-157, 5-amino-7-methoxy-N-(quinolin-8-ylmethyl)imidazo[1,2-c]quinazoline-2-carboxamide] the value was 1.5 nM. The value for `Nc1nc2ccccc2c2nc(C(=O)NCc3ccc(F)cc3F)cn12` [Ex-158, 5-amino-N-(2,4-difluorobenzyl)imidazo[1,2-c]quinazoline-2-carboxamide] was 33.9 nM; that for `COc1cccc2c1nc(N)n1cc(C(=O)N(C)Cc3cccc4cccnc34)nc21` [Ex-159, 5-amino-7-methoxy-N-methyl-N-(quinolin-8-ylmethyl)imidazo[1,2-c]quinazoline-2-carboxamide] was 5.9 nM.

On to `CN(Cc1cccc2cccnc12)C(=O)c1cn2c(N)nc3ccccc3c2n1` [Ex-160, 5-amino-N-methyl-N-(quinolin-8-ylmethyl)imidazo[1,2-c]quinazoline-2-carboxamide], for which the Ki was found to be 80.6 nM.

Take `Nc1nc2ccccc2c2nc(C(=O)NCc3cccc4cccnc34)cn12` [Ex-161, 5-amino-N-(quinolin-8-ylmethyl)-imidazo-[1,2-c]-quinazoline-2-carboxamide]: the Ki was 39.4 nM.

For the compound `CN(Cc1cccc2cccnc12)C(=O)c1cn2c(N)nc3c(F)cccc3c2n1` [Ex-162, 5-amino-7-fluoro-N-methyl-N-(quinolin-8-ylmethyl)imidazo[1,2-c]quinazoline-2-carboxamide], the Ki turned out to be 29.7 nM.

Consider `Nc1nc2c(F)cccc2c2nc(C(=O)NCc3cccc4cccnc34)cn12` [Ex-163, 5-amino-7-fluoro-N-(quinolin-8-ylmethyl)imidazo[1,2-c]quinazoline-2-carboxamide], for which the Ki is 12.8 nM. Consider `COc1ccc(CNc2nc3c(F)cccc3c3nc(C(=O)N4Cc5ccc(Br)cc5C4)cn23)c(OC)c1` [Ex-164, (5-bromoisoindolin-2-yl)(5-((2,4-dimethoxybenzyl)amino)-7-fluoroimidazo[1,2-c]quinazolin-2-yl)methanone], for which the Ki is > 2200 nM. The value for `Nc1nc2ccccc2c2nc(C(=O)N3CCN(c4ccc(F)cc4F)CC3)cn12` [Ex-165, (5-aminoimidazo[1,2-c]quinazolin-2-yl)(4-(2,4-difluorophenyl)piperazin-1-yl)methanone] was 10000 nM. For `Nc1nc2c(F)cccc2c2nc(C(=O)NCC(c3cccnc3)N3CCOCC3)cn12` (stereo not drawn) [Ex-166, 5-amino-7-fluoro-N-(2-morpholino-2-(pyridin-3-yl)ethyl)imidazo[1,2-c]quinazoline-2-carboxamide] the value was 1400 nM; for `COc1cccc2c1nc(N)n1cc(C(=O)N3CC(C)CC(C)C3)nc21` (stereo not drawn) [Ex-167, (5-amino-7-methoxyimidazo[1,2-c]quinazolin-2-yl)(3,5-dimethylpiperidin-1-yl)methanone], 16 nM.

As to `COc1cccc2c1nc(N)n1cc(C(=O)N3CCC(F)(F)CC3)nc21` [Ex-168, (5-amino-7-methoxyimidazo[1,2-c]quinazolin-2-yl)(4,4-difluoropiperidin-1-yl)methanone], the Ki is 81 nM. Consider `COc1cccc2c1nc(N)n1cc(C(=O)N3CCCC(OC)C3)nc21` (stereo not drawn) [Ex-169, (5-amino-7-methoxyimidazo[1,2-c]quinazolin-2-yl)(3-methoxypiperidin-1-yl)methanone], for which the Ki turned out to be 34 nM.

With `COc1cccc2c1nc(N)n1cc(C(=O)N3CCCC(C)C3)nc21` (stereo not drawn) [Ex-170, (5-amino-7-methoxyimidazo[1,2-c]quinazolin-2-yl)(3-methylpiperidin-1-yl)methanone], the Ki was 11.5 nM. The value for `COc1cccc2c1nc(N)n1cc(C(=O)N3CCCC(F)C3)nc21` (stereo not drawn) [Ex-171, (5-amino-7-methoxyimidazo[1,2-c]quinazolin-2-yl)(3-fluoropiperidin-1-yl)methanone] was 20 nM; that for `COc1cccc2c1nc(N)n1cc(C(=O)N3CCCC(F)(F)C3)nc21` [Ex-172, (5-amino-7-methoxyimidazo[1,2-c]quinazolin-2-yl)(3,3-difluoropiperidin-1-yl)methanone] was 18 nM; that for `COc1cccc2c1nc(N)n1cc(C(=O)N3CCCC(C(F)(F)F)C3)nc21` (stereo not drawn) [Ex-173, (5-amino-7-methoxyimidazo[1,2-c]quinazolin-2-yl)(3-(trifluoromethyl)piperidin-1-yl)methanone] was 31 nM.

As for `COc1cccc2c1nc(N)n1cc(C(=O)N3CCCC4(CC4)C3)nc21` [Ex-174, (5-amino-7-methoxyimidazo[1,2-c]quinazolin-2-yl)(5-azaspiro[2.5]octan-5-yl)methanone], the Ki is 2.3 nM. As for `COc1cccc2c1nc(N)n1cc(C(=O)N3C[C@@H](F)[C@H](F)C3)nc21` [Ex-175, (5-amino-7-methoxyimidazo[1,2-c]quinazolin-2-yl)((3R,4R)-3,4-difluoropyrrolidin-1-yl)methanone], the Ki worked out at 21 nM.

With `COc1cccc2c1nc(N)n1cc(C(=O)N3CCCC(C)CC3)nc21` (stereo not drawn) [Ex-176, (5-amino-7-methoxyimidazo[1,2-c]quinazolin-2-yl)(4-methylazepan-1-yl)methanone], the Ki is 10 nM. For `COc1cccc2c1nc(N)n1cc(C(=O)N3CCCOCC3)nc21` [Ex-177, (5-amino-7-methoxyimidazo[1,2-c]quinazolin-2-yl)(1,4-oxazepan-4-yl)methanone] the value was 49 nM; for `COc1cccc2c1nc(N)n1cc(C(=O)N3CCCC(F)(F)CC3)nc21` [Ex-178, (5-amino-7-methoxyimidazo[1,2-c]quinazolin-2-yl)(4,4-difluoroazepan-1-yl)methanone], 27 nM; for `COc1cccc2c1nc(N)n1cc(C(=O)N3CCCC(=O)CC3)nc21` [Ex-179, 1-(5-amino-7-methoxyimidazo[1,2-c]quinazoline-2-carbonyl)azepan-4-one], 31 nM.

With `COc1cccc2c1nc(N)n1cc(C(=O)N3C[C@@H](C)O[C@@H](C)C3)nc21` [Ex-180, (5-amino-7-methoxyimidazo[1,2-c]quinazolin-2-yl)((2R,6S)-2,6-dimethylmorpholino) methanone], the Ki was found to be 53 nM. In the case of `COc1cccc2c1nc(N)n1cc(C(=O)N3CCO[C@H](C)C3)nc21` [Ex-181, (R)-(5-amino-7-methoxyimidazo[1,2-c]quinazolin-2-yl)(2-methylmorpholino) methanone], the Ki is 110 nM.

With `COc1cccc2c1nc(N)n1cc(C(=O)N3CCO[C@@H](C)C3)nc21` [Ex-182, (S)-(5-amino-7-methoxyimidazo[1,2-c]quinazolin-2-yl)(2-methylmorpholino) methanone], the Ki was determined as 75 nM. The value for `COc1cccc2c1nc(N)n1cc(C(=O)N3CCOC[C@H]3C)nc21` [Ex-183, (R)-(5-amino-7-methoxyimidazo[1,2-c]quinazolin-2-yl)(3-methylmorpholino) methanone] was 126 nM; that for `COc1cccc2c1nc(N)n1cc(C(=O)N3CCOC[C@@H]3C)nc21` [Ex-184, (S)-(5-amino-7-methoxyimidazo[1,2-c]quinazolin-2-yl)(3-methylmorpholino) methanone] was 90 nM.
